From patent publication US8198236B2, “Methods and compositions for the treatment of cancer” (Washington University, priority 2007, dated 2012)

B1: Dkk1: Human recombinant DKK1 protein, LRP6-specific ligand and antagonist (protein)
chain: TLNSVLNSNAIKNLPPPLGGAAGHPGSAVSAAPGILYPGGNKYQTIDNYQPYPCAEDEECGTDEYCASPTRGGDAGVQICLACRKRRKRCMRHAMCCPGNYCKNGICVSSDQNHFRGEIEETITESFGNDHSTLDGYSRRTTLSSKMYHTKGQEGSVCLRSSDCASGLCCARHFWSKICKPVLKEGQVCTKHRRKGSHGLEIFQRCYCGEGLSCRIQKDHHQASNSSRLHTCQRH

Experiments:
[1] = mouse, in vivo
Procedure: In experiments shown in FIG. 23, pharmacokinetics of Mesd peptide and Mesd were examined. FIG. 23A: Amount of Mesd in serum following a single dose of protein administration. Mice were dosed at 5, 10, 20 mg/kg of Mesd via i.p. and the serum samples were collected from individual mice at the indicated time points. The levels of Mesd in serum were quantified by comparison to Mesd pure protein with known concentrations in Western blot analysis. Values are the average of triple determinations with S.D. indicated by error bars. […] Samples were obtained by terminal bleed under anesthesia at each of the indicated time points (N=3 animals per time point). Radioactivity was measured using a gamma counter and DPM converted to mass units/mL blood using the specific activity (DPM/mass) of each test substance. Data are plotted as mass U/mL of test substance with standard deviation indicated by error bars.

Wnt signaling [2] = experiment: Wnt signaling in MMTV-Wnt1 tumors (GST-E-cadherin pull-down, c-Myc expression); assay type: in vivo, mice; conditions: GST-E-cadherin pull-down and c-Myc expression
Procedure: The GST-E-cadherin pulldown assay was performed as previously described (2). Cells expressing control or LRP6 shRNA were treated with L cells or Wnt3a-conditioned media (CM) for 4 h. Free β-catenin was determined using a GST-E-cadherin pull-down assay. Cells were lysed for 30 minutes at 4° C. Protein concentrations in lysates were quantified, and equal quantities of total proteins from different samples were incubated with GST-E-cadherin Sepharose beads for 4 h at 4° C. After incubation, the beads were washed three times and the bound proteins were eluted and separated via SDS-PAGE. Western blotting was performed using antibody to β-catenin.
In these experiments, mice bearing established MMTV-Wnt1 tumor transplants were divided into three groups (five animals per group) and were i.p. injected with PBS (vehicle), Mesd, or Mesd peptide every other day. Tumor volume was analyzed using caliper measurement. Data represent at least three independent experiments and each time point represents the mean tumor volume±SEM. *p<0.05; **p<0.01. […] Scale bar=50 μm.

MMTV-Wnt1 tumors = experiment: MMTV-Wnt1 tumor transplant growth in nude mice; assay type: in vivo; conditions: i.p. every other day, first dose 15 mg/kg then 10 mg/kg, three weeks
Procedure: Recombinant Mesd protein was prepared as described (Li Y, et al. (2005) J Cell Sci 118(22): 5305-5314). Mesd peptide, […] (SEQ ID NO: 14), was manufactured by Abgent (San Diego). Female athymic nude mice (Taconic) (6-8 weeks old) were used for passaging tumors from MMTV-Wnt1 mice (Taconic). MMTV-Wnt1 tumors were serially passaged in mice by implantation in the mammary fat pad as described (DeAlmeida V, et al. (2007) Cancer Res 67, 5371-5379). Therapeutic agents (200 μL Mesd protein, Mesd peptide or PBS) were administrated i.p. with a first dose of 15 mg/kg, followed by 10 mg/kg (9 more doses). Three groups of mice were treated every other day for three weeks and tumor volumes were measured thrice weekly.
The pharmacokinetics and bioavailability of Mesd and Mesd peptide ([…] (SEQ ID NO: 14)) were first investigated (FIG. 23). Cells from MMTV-Wnt1 tumors were injected into the mammary fat pads of female nude mice, and the resultant mice were subsequently randomly grouped when the mean tumor volume reached ca. 200 mm^3. […]
In these experiments, mice bearing established MMTV-Wnt1 tumor transplants were divided into three groups (five animals per group) and were i.p. injected with PBS (vehicle), Mesd, or Mesd peptide every other day. Tumor volume was analyzed using caliper measurement. […]

[3] = mouse, in vivo; remark: listed apart in the source
Procedure: Hemotoxylin and eosin (H&E) staining was performed on tumor xenograft tissue, skin and intestine harvested at the end of Mesd treatment.
FIG. 24D: H&E staining of tail vertebrae treated with PBS, Mesd or Mesd peptide.

Wnt signaling [4] = experiment: TCF/LEF-luc reporter assay in Wnt-3A-treated HEK293 cells; assay type: cell-based; conditions: Wnt3A conditioned medium plus Dkk1 at 10 nM, 16 hours at 37° C.
Procedure: HEK293 cells were plated into six-well plates. For each well, 0.1 μg of the TOP-FLASHTCF luciferase construct (Upstate Biotechnology) was cotransfected with 0.8 μg Mesd-expressing vector, 0.8 μg Mesd mutant-expressing vector, or empty vector. A β-galactosidase-expressing vector (Promega, Madison, Wis.) was included as an internal control for transfection efficiency. After 48 hours, cells were lysed and both luciferase and β-galactosidase activities were determined with enzyme assay kits (Promega). The luciferase activity was determined with a luminometer using the Dual Luciferase Assay system (Promega). Luciferase activity was normalized to the activity of the β-galactosidase.
In these experiments, transfected cells were treated without Wnt-3A or with Wnt-3A plus the indicated inhibitors (Mesd and/or Dkk1) for 16 hours at 37° C. Wnt signaling was measured by quantifying the luciferase activity using a live cell imaging system.

HCC1187 cells = experiment: MTT assay of Wnt3a CM-stimulated growth of HCC1187 cells; assay type: cell-based, human; conditions: Dkk1 10 nM, 24 h
Procedure: Cell growth and cell proliferation were measured by MTT assay (Promega) and BrdU incorporation using the BrdU ELISA kit (Roche Molecular Systems) according to the manufacturers' instructions. […] Breast cancer cells expressing control or LRP6 shRNA were seeded into 48-well plates. MTT-labeling reagent was added to each well 24 h later, and plates were incubated at 37° C. for 4 h. After the incubation period, the formazan crystals were dissolved in an MTT solubilization reagent and the resulting color was quantified spectrophotometrically. In some experiments, cell proliferation was measured by BrdU incorporation using the BrdU ELISA kit (Roche Molecular Systems) according to the manufacturer's instructions. Briefly, cancer cells expressing control or LRP6 shRNA were plated on 96-well plate. Cells were incubated with BrdU for 24 h, and the newly synthesized BrdU-DNA was then determined by colorimetry using an ELISA reader. All experiments were performed three times in triplicate.
In FIG. 20, * indicates p<0.05 compared to L cell CM; ** indicates p<0.01 compared to L cell CM.

Row | Molecule | Bioavailability [1] [%] | Distribution into tissues [1] | Wnt signaling in tumors compared to control treatment (Wnt signaling [2]) | Tumor growth (tumor volume, caliper) (MMTV-Wnt1 tumors) | Adverse effect on small intestine (gross examination) [3] | Architecture of gastrointestinal compartments and skin (H&E) [3] | Bone lesions or outgrowths in tail vertebrae [3] | General health and body weight of treated mice [3] | Inhibition of Wnt signaling (luciferase activity) (Wnt signaling [4]) | Effect on Wnt3a CM-increased cell growth (HCC1187 cells)
1 | KGGGSKEKNKTKQDKGKKKKEGDLKSRSSKEENRAGNK [Mesd peptide] | 60 | rapid and widespread | decreased Wnt signaling | significantly inhibit tumor growth | no significant adverse effect | morphologically normal | no significant bone lesions or outgrowths | grossly healthy and maintain their weights |  | 
2 | B1 |  |  |  |  |  |  |  |  | more potent inhibitor | abolished
